Experimental data from ChEMBL document CHEMBL1201862, “PubChem BioAssay data set” (2004).
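Tested at 5 concentrations; 48 h exposure; 96-well plates; endpoints linearly interpolated, else capped at highest concentration. GI50 is the concentration that inhibits growth by half.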 Calls of active or inactive are those of the source. No stated cut-off is given here; in the data, active = GI50 up to about 1.1 µM and inactive = higher.

Columns and labels:
Test in all cases: NCI anticancer screen, dose series, 48 h
UACC-257 = system: UACC-257
UACC-62 = system: UACC-62
HOP-92 = system: HOP-92
RPMI-8226 = system: RPMI-8226
A549 = system: A549
SNB-19 = system: SNB-19
NCI-H460 = system: NCI-H460
K562 = system: K562
U-251 = system: U-251
MDA-MB-435 = system: MDA-MB-435
LOX IMVI = system: LOX IMVI
MCF7 = system: MCF7
RXF 393 = system: RXF 393
NCI/ADR-RES = system: NCI/ADR-RES
SW-620 = system: SW-620
HT-29 = system: HT-29
CAKI-1 = system: CAKI-1
SK-MEL-28 = system: SK-MEL-28
HCT-116 = system: HCT-116
MDA-N = system: MDA-N
OVCAR-8 = system: OVCAR-8
T47D = system: T47D
CCRF-CEM = system: CCRF-CEM
SR = system: SR
SF-539 = system: SF-539
KM12 = system: KM12
MOLT-4 = system: MOLT-4
SN12C = system: SN12C
OVCAR-3 = system: OVCAR-3
SK-OV-3 = system: SK-OV-3
NCI-H23 = system: NCI-H23
SK-MEL-5 = system: SK-MEL-5
OVCAR-4 = system: OVCAR-4
SNB-75 = system: SNB-75
HCC 2998 = system: HCC 2998
ACHN = system: ACHN
MDA-MB-231 = system: MDA-MB-231
HOP-62 = system: HOP-62
PC-3 = system: PC-3
IGROV-1 = system: IGROV-1
Hs-578T = system: Hs-578T
786-0 = system: 786-0
NCI-H226 = system: NCI-H226
TK-10 = system: TK-10
OVCAR-5 = system: OVCAR-5
EKVX = system: EKVX
SF-268 = system: SF-268
COLO 205 = system: COLO 205
SF-295 = system: SF-295
HCT-15 = system: HCT-15
HL-60 = system: HL-60
Malme-3M = system: Malme-3M
UO-31 = system: UO-31
M14 = system: M14
DU-145 = system: DU-145
SK-MEL-2 = system: SK-MEL-2
A498 = system: A498

Structure (SMILES): CC(C)CC(NC(=O)C(O)C(N)Cc1ccccc1)C(=O)O (centres undefined)
- GI50 (UACC-257): > 100 µM (inactive)
- GI50 (UACC-62): > 100 µM (inactive)
- GI50 (HOP-92): > 100 µM (inactive)
- GI50 (RPMI-8226): > 100 µM (inactive)
- GI50 (A549): > 100 µM (inactive)
- GI50 (SNB-19): > 100 µM (inactive)
- GI50 (NCI-H460): > 100 µM (inactive)
- GI50 (K562): > 100 µM (inactive)
- GI50 (U-251): > 100 µM (inactive)
- GI50 (MDA-MB-435): > 100 µM (inactive)
- GI50 (LOX IMVI): > 100 µM (inactive)
- GI50 (MCF7): > 100 µM (inactive)
- GI50 (RXF 393): > 100 µM (inactive)
- GI50 (NCI/ADR-RES): > 100 µM (inactive)
- GI50 (SW-620): > 100 µM (inactive)
- GI50 (HT-29): > 100 µM (inactive)
- GI50 (CAKI-1): > 100 µM (inactive)
- GI50 (SK-MEL-28): > 100 µM (inactive)
- GI50 (HCT-116): > 100 µM (inactive)
- GI50 (MDA-N): > 100 µM (inactive)
- GI50 (OVCAR-8): > 100 µM (inactive)
- GI50 (T47D): > 100 µM (inactive)
- GI50 (CCRF-CEM): > 100 µM (inactive)
- GI50 (SR): > 100 µM (inactive)
- GI50 (SF-539): > 100 µM (inactive)
- GI50 (KM12): > 100 µM (inactive)
- GI50 (MOLT-4): > 100 µM (inactive)
- GI50 (SN12C): > 100 µM (inactive)
- GI50 (OVCAR-3): > 100 µM (inactive)
- GI50 (SK-OV-3): > 100 µM (inactive)
- GI50 (NCI-H23): > 100 µM (inactive)
- GI50 (SK-MEL-5): > 100 µM (inactive)
- GI50 (OVCAR-4): > 100 µM (inactive)
- GI50 (SNB-75): > 100 µM (inactive)
- GI50 (HCC 2998): > 100 µM (inactive)
- GI50 (ACHN): > 100 µM (inactive)
- GI50 (MDA-MB-231): > 100 µM (inactive)
- GI50 (HOP-62): > 100 µM (inactive)
- GI50 (PC-3): > 100 µM (inactive)
- GI50 (IGROV-1): > 100 µM (inactive)
- GI50 (Hs-578T): > 100 µM (inactive)
- GI50 (786-0): > 100 µM (inactive)
- GI50 (NCI-H226): > 100 µM (inactive)
- GI50 (TK-10): > 100 µM (inactive)
- GI50 (OVCAR-5): > 100 µM (inactive)
- GI50 (EKVX): > 100 µM (inactive)
- GI50 (SF-268): > 100 µM (inactive)
- GI50 (COLO 205): > 100 µM (inactive)
- GI50 (SF-295): > 100 µM (inactive)
- GI50 (HCT-15): > 100 µM
- GI50 (HL-60): > 100 µM (inactive)
- GI50 (Malme-3M): > 100 µM (inactive)
- GI50 (UO-31): 56.4 µM (inactive)
- GI50 (M14): > 100 µM (inactive)
- GI50 (DU-145): > 100 µM (inactive)
- GI50 (SK-MEL-2): > 100 µM (inactive)

Structure (SMILES): [N-]=[N+]=NCc1nc(N)c2c3c(sc2n1)CCCC3
- GI50 (UACC-257): 4.22 µM (inactive)
- GI50 (UACC-62): 5.06 µM (inactive)
- GI50 (HOP-92): 0.402 µM (active)
- GI50 (RPMI-8226): 2.19 µM (inactive)
- GI50 (A549): 3.27 µM (inactive)
- GI50 (SNB-19): 4.97 µM (inactive)
- GI50 (NCI-H460): 3.43 µM (inactive)
- GI50 (K562): 4.22 µM (inactive)
- GI50 (U-251): 2.47 µM (inactive)
- GI50 (MDA-MB-435): 4.25 µM (inactive)
- GI50 (LOX IMVI): 0.272 µM (active)
- GI50 (MCF7): 2.19 µM (inactive)
- GI50 (RXF 393): 5.4 µM (inactive)
- GI50 (NCI/ADR-RES): 1.99 µM (inactive)
- GI50 (SW-620): 6.85 µM (inactive)
- GI50 (HT-29): 1.55 µM (inactive)
- GI50 (CAKI-1): 1.56 µM (inactive)
- GI50 (SK-MEL-28): 7.16 µM (inactive)
- GI50 (HCT-116): 2.52 µM (inactive)
- GI50 (MDA-N): 2.51 µM (inactive)
- GI50 (OVCAR-8): 1.51 µM (inactive)
- GI50 (T47D): 6.85 µM (inactive)
- GI50 (SR): 4.99 µM (inactive)
- GI50 (SF-539): 1.6 µM (inactive)
- GI50 (KM12): 0.979 µM (active)
- GI50 (MOLT-4): 3.29 µM (inactive)
- GI50 (SN12C): 2.74 µM (inactive)
- GI50 (OVCAR-3): 2.75 µM (inactive)
- GI50 (SK-OV-3): 11.6 µM (inactive)
- GI50 (NCI-H23): 1.3 µM (inactive)
- GI50 (SK-MEL-5): 1.36 µM (inactive)
- GI50 (OVCAR-4): 0.631 µM (active)
- GI50 (SNB-75): 7.69 µM (inactive)
- GI50 (HCC 2998): 1.84 µM (inactive)
- GI50 (ACHN): 3 µM (inactive)
- GI50 (MDA-MB-231): 6.17 µM (inactive)
- GI50 (HOP-62): 3.72 µM (inactive)
- GI50 (PC-3): 2.04 µM (inactive)
- GI50 (IGROV-1): 1.2 µM (inactive)
- GI50 (Hs-578T): 2.72 µM (inactive)
- GI50 (786-0): 0.455 µM (active)
- GI50 (NCI-H226): 2.14 µM (inactive)
- GI50 (TK-10): 12.4 µM (inactive)
- GI50 (OVCAR-5): 3.64 µM (inactive)
- GI50 (EKVX): 2.1 µM (inactive)
- GI50 (SF-268): 2.32 µM (inactive)
- GI50 (COLO 205): 3.78 µM (inactive)
- GI50 (SF-295): 7.38 µM (inactive)
- GI50 (HCT-15): 2.76 µM
- GI50 (A498): 10.9 µM (inactive)
- GI50 (Malme-3M): 1.55 µM (inactive)
- GI50 (UO-31): 0.0532 µM (active)
- GI50 (M14): 3.46 µM (inactive)
- GI50 (DU-145): 3.13 µM (inactive)
- GI50 (SK-MEL-2): 9.38 µM (inactive)

Structure (SMILES): N#CC1Nc2ccccc2[C@@H](O)C1O (some centres undefined)
- GI50 (UACC-257): > 100 µM (inactive)
- GI50 (UACC-62): > 100 µM (inactive)
- GI50 (HOP-92): > 100 µM (inactive)
- GI50 (RPMI-8226): > 100 µM (inactive)
- GI50 (A549): > 100 µM (inactive)
- GI50 (NCI-H460): > 100 µM (inactive)
- GI50 (K562): > 100 µM (inactive)
- GI50 (U-251): > 100 µM (inactive)
- GI50 (MDA-MB-435): > 100 µM (inactive)
- GI50 (LOX IMVI): > 100 µM (inactive)
- GI50 (MCF7): > 100 µM (inactive)
- GI50 (RXF 393): > 100 µM (inactive)
- GI50 (NCI/ADR-RES): > 100 µM (inactive)
- GI50 (SW-620): > 100 µM (inactive)
- GI50 (HT-29): > 100 µM (inactive)
- GI50 (CAKI-1): > 100 µM (inactive)
- GI50 (SK-MEL-28): > 100 µM (inactive)
- GI50 (HCT-116): > 100 µM (inactive)
- GI50 (MDA-N): > 100 µM (inactive)
- GI50 (OVCAR-8): > 100 µM (inactive)
- GI50 (T47D): > 100 µM (inactive)
- GI50 (CCRF-CEM): > 100 µM (inactive)
- GI50 (SR): > 100 µM (inactive)
- GI50 (SF-539): > 100 µM (inactive)
- GI50 (KM12): > 100 µM (inactive)
- GI50 (MOLT-4): > 100 µM (inactive)
- GI50 (SN12C): > 100 µM (inactive)
- GI50 (OVCAR-3): > 100 µM (inactive)
- GI50 (SK-OV-3): > 100 µM (inactive)
- GI50 (NCI-H23): > 100 µM (inactive)
- GI50 (SK-MEL-5): > 100 µM (inactive)
- GI50 (OVCAR-4): > 100 µM (inactive)
- GI50 (SNB-75): > 100 µM (inactive)
- GI50 (HCC 2998): > 100 µM (inactive)
- GI50 (ACHN): > 100 µM (inactive)
- GI50 (MDA-MB-231): > 100 µM (inactive)
- GI50 (HOP-62): > 100 µM (inactive)
- GI50 (PC-3): > 100 µM (inactive)
- GI50 (IGROV-1): > 100 µM (inactive)
- GI50 (Hs-578T): > 100 µM (inactive)
- GI50 (786-0): > 100 µM (inactive)
- GI50 (TK-10): > 100 µM (inactive)
- GI50 (OVCAR-5): > 100 µM (inactive)
- GI50 (EKVX): > 100 µM (inactive)
- GI50 (SF-268): > 100 µM (inactive)
- GI50 (COLO 205): > 100 µM (inactive)
- GI50 (SF-295): > 100 µM (inactive)
- GI50 (HCT-15): > 100 µM
- GI50 (HL-60): > 100 µM (inactive)
- GI50 (Malme-3M): > 100 µM (inactive)
- GI50 (M14): > 100 µM (inactive)
- GI50 (DU-145): > 100 µM (inactive)
- GI50 (SK-MEL-2): > 100 µM (inactive)
